Key:
[1] = test system: murine thymoma ITT(1) 75NS E3 (Ly-2^+); experiment: 24 hour inhibition assay ([^3 H]-thymidine incorporation), E3; type: cell-based; conditions: Mus musculus
From the text: (§1) The cell lines examined in this study included the (Ly-2^+) murine thymoma ITT(1) 75NS E3 variant (E3) (Smyth et al, J. Natl Cancer Inst. 1986 76 503-510), the (Ly-2^-, TFR^-) lymphoma EL4 (Horowitz et al, Science 1968 160 533-535), the (TFR^+) human cell line CEM (Foley et al Cancer 1965 18 522-529) and the (250-30.6^+) human cell line COLO 205. Cells were maintained in vitro in Dulbecco's Modified Eagle's medium (DME) or RPMI 1640 medium (Flow Laboratories, Sydney, Australia), supplemented with 10% heat inactivated newborn calf serum (Flow), 2 mM glutamine (Commonwealth Serum Laboratories, Sydney, Australia); 100 ug/ml streptomycin (Glaxo, Melbourne, Australia) and 100 I.U./ml penicillin (Commonwealth Serum Laboratories). […] Mice were subjected to a series of intraveneous (i.v.) or intratumour (i.t.) treatments and the subsequent size of tumours was measured daily with a caliper square, measuring along the perpendicular axes of the tumours. Data was recorded as mean tumour size (product of two diameters ± standard error).
(§2) (b) 30 minute inhibition assay: 200 ul of cells (2-5×10^6 /ml) were collected in sterile Eppendorf tubes, resuspended in sterile drug or conjugate and mixed for 30 min at 37° C. […] Cells were then harvested and dried, and individual samples were separated and counted on a beta scintillation counter.

human cell line CEM [2] = experiment: 24 hour inhibition assay ([^3 H]-thymidine incorporation), CEM; type: cell-based
From the text: as §1, §2

COLO 205 [3] = experiment: 24 hour inhibition assay ([^3 H]-thymidine incorporation), COLO 205; type: cell-based; conditions: Homo sapiens
Description: The cell lines examined in this study included the (Ly-2^+) murine thymoma ITT(1) 75NS E3 variant (E3) (Smyth et al, J. Natl Cancer Inst. 1986 76 503-510), the (Ly-2^-, TFR^-) lymphoma EL4 (Horowitz et al, Science 1968 160 533-535), the (TFR^+) human cell line CEM (Foley et al Cancer 1965 18 522-529) and the (250-30.6^+) human cell line COLO 205. […] Mice were subjected to a series of intraveneous (i.v.) or intratumour (i.t.) treatments and the subsequent size of tumours was measured daily with a caliper square, measuring along the perpendicular axes of the tumours. Data was recorded as mean tumour size (product of two diameters ± standard error). […]
as §2, with “counter. Incorporation of [^3 H]-thymidine was expressed as a percentage inhibition in incorporation of controls. […]” for “counter.”

(L3T4^+) lymphoma EL4 [4] = experiment: 24 hour inhibition assay ([^3 H]-thymidine incorporation), EL4; type: cell-based; conditions: Table 3; EL4, 24 hr; read-out: Mean I.D.50 values (Ida (M))
Description: (a) 24 hour inhibition assay: 100 ul of cells (2-5×10^6 /ml) were added to a flat-bottomed microtitre plate and incubated for 1 hour at 37° C. Free Idarubicin (Ida) (dissolved in PBS) and Ida-MoAb conjugates were filtered aseptically and dilutions were performed in sterile PBS; 50 ul of free Ida or conjugate were added to the cells using duplicate wells for each sample; control wells received 50 ul of PBS and the cells were cultured at 37° C., 7% CO2 for 24 hours.
as §2, with “counter. Incorporation of [^3 H]-thymidine was expressed as a percentage inhibition in incorporation of controls.” for “counter.”
(§3) The cell lines examined in this study included the (Ly-2^+) murine thymoma ITT(1)75NS E3 variant (E3), the (L3T4^+) lymphoma EL4 (Horowitz et al, Science 1968 160 533-535), the human colon carcinoma Colo 205 (Semple et al, Cancer Res. 1978 38 1345-1355) and the (Ly-2^-, L3T4^-) human T cell leukemia CEM (Foley et al, Cancer 1965 18 522-529). […] Mice were then subjected to a series of i.v. treatments and the size of the tumours was measured daily with a caliper square, measuring along the perpendicular axes of the tumours. […]

E3 and CEM cell lines = test system: E3 and CEM cell lines
Description: (§4) (b) 30 minute inhibition assay: 200 ul of cells (2-5×10^6 /ml) were collected in sterile Eppendorf tubes, resuspended in sterile drug or conjugate and mixed for 30 min at 37° C. Cells were then centrifuged (400 g×5 min), resuspended in growth medium and 100 ul aliquots were seeded into a microtitre plate using duplicate wells for each sample before an incubation period of 16-24 hours. After the incubation period in both these assays, 50 ul of growth medium containing 1 uCi of [^3 H]-thymidine (specific activity=5 Ci/mmol; Amersham) was added and the plates incubated for 2-4 hours. Cells were then harvested and dried, and individual samples were separated and counted on a beta scintillation counter.

tumour cell lines tested = experiment: 24 hour assay, tumour cell lines tested (Example 2); type: cell-based
Description: as §4, with “(b) 30 minute inhibition assay: 200 ul of cells (2-5×10^6 /ml) were collected in sterile Eppendorf tubes, resuspended in sterile drug or conjugate and mixed for 30 min at 37° C.” left out

[5] = test system: murine thymoma ITT(1) 75NS E3 (Ly-2^+); experiment: 30 minute inhibition assay ([^3 H]-thymidine incorporation), E3; type: cell-based; conditions: 0.5 h
From the text: (§5) The cell lines examined in this study included the (Ly-2^+) murine thymoma ITT(1) 75NS E3 variant (E3) (Smyth et al, J. Natl Cancer Inst. 1986 76 503-510), the (Ly-2^-, TFR^-) lymphoma EL4 (Horowitz et al, Science 1968 160 533-535), the (TFR^+) human cell line CEM (Foley et al Cancer 1965 18 522-529) and the (250-30.6^+) human cell line COLO 205. Cells were maintained in vitro in Dulbecco's Modified Eagle's medium (DME) or RPMI 1640 medium (Flow Laboratories, Sydney, Australia), supplemented with 10% heat inactivated newborn calf serum (Flow), 2 mM glutamine (Commonwealth Serum Laboratories, Sydney, Australia); 100 ug/ml streptomycin (Glaxo, Melbourne, Australia) and 100 I.U./ml penicillin (Commonwealth Serum Laboratories). The E3 tumour was maintained in vivo by serial passage into (C57BL/6×BALB/c)F1 mice (CBF1 mice). Cells from the ascites fluid were washed and centrifuged (400 g×5 min) twice in phosphate buffered saline (PBS), pH7.3, resuspended in PBS and injected subcutaneously (s.c.) into the abdominal wall of mice; these developed into palpable tumours prior to treatment. Mice were subjected to a series of intraveneous (i.v.) or intratumour (i.t.) treatments and the subsequent size of tumours was measured daily with a caliper square, measuring along the perpendicular axes of the tumours. Data was recorded as mean tumour size (product of two diameters ± standard error).
as §4

COLO 205 [6] = experiment: 30 minute inhibition assay ([^3 H]-thymidine incorporation), COLO 205; type: cell-based; conditions: Homo sapiens, 0.5 h
Description: (§6) The cell lines examined in this study included the (Ly-2^+) murine thymoma ITT(1) 75NS E3 variant (E3) (Smyth et al, J. Natl Cancer Inst. 1986 76 503-510), the (Ly-2^-, TFR^-) lymphoma EL4 (Horowitz et al, Science 1968 160 533-535), the (TFR^+) human cell line CEM (Foley et al Cancer 1965 18 522-529) and the (250-30.6^+) human cell line COLO 205. […] Mice were subjected to a series of intraveneous (i.v.) or intratumour (i.t.) treatments and the subsequent size of tumours was measured daily with a caliper square, measuring along the perpendicular axes of the tumours. Data was recorded as mean tumour size (product of two diameters ± standard error).
as §2
(§7) Data was recorded as mean tumour size (product of two diameters ± standard error).

(L3T4^+) lymphoma EL4 [7] = experiment: 30 minute inhibition assay ([^3 H]-thymidine incorporation), EL4; type: cell-based; conditions: 0.5 h; Table 3; EL4, 30 min; read-out: Mean I.D.50 values (Ida (M))
Description: as §4, with “counter. Incorporation of [^3 H]-thymidine was expressed as a percentage inhibition in incorporation of controls.” for “counter.”
as §3, with “522-529). Cells were maintained in vitro as described in Example 1.” for “522-529).”

human cell line CEM [8] = experiment: cells; type: cell-based; conditions: 0.5 h, Table 3, 30 min, read-out: Mean I.D.50 values (Ida (M))
Description: as §6, §2, §7

E3 thymoma = experiment: i.v. treatment of s.c. E3 thymoma in CBF1 mice (2.0×10^6 cells); type: in vivo; conditions: 20 ug Ida, days 4 and 5
From the text: as §5, with “error). […]” for “error).”

solid E3 tumour = experiment: Intratumour treatment of E3 tumours in CBF1 mice; type: in vivo; conditions: days 5 and 6, total Ida=30 ug
Description: The E3 tumour was maintained in vivo by serial passage into (C57BL/6×BALB/c)F1 mice (CBF1 mice). Cells from the ascites fluid were washed and centrifuged (400 g×5 min) twice in phosphate buffered saline (PBS), pH7.3, resuspended in PBS and injected subcutaneously (s.c.) into the abdominal wall of mice; these developed into palpable tumours prior to treatment. Mice were subjected to a series of intraveneous (i.v.) or intratumour (i.t.) treatments and the subsequent size of tumours was measured daily with a caliper square, measuring along the perpendicular axes of the tumours. Data was recorded as mean tumour size (product of two diameters ± standard error).

COLO 205 xenografts = experiment: i.v. treatment of COLO 205 xenografts in nude mice; type: in vivo, nude (nu/nu) mice; human tumour; conditions: total 275 ug Ida
From the text: Injection of 2×10^6 cells subcutaneously into the abdominal wall yielded a palpable lump within 4 days (approx. 0.1 cm^2).

[9] = Acute toxicity, single i.v. injection in CBA mice; type: in vivo; conditions: mouse, in vivo, iv; Table 2; Ida (mg/kg)
Description: (§8) Groups of 10-20 CBA mice were given a single i.v. injection of various doses of Ida or Ida-anti-Ly-2.1 and the survival of mice was recorded against the dose of drug delivered in mg/kg. The organs of these mice were removed and weighed prior to formalin fixation and staining by haematoxylin and eosin.
(§9) For acute toxicity experiments groups of 10 CBA (Ly2.1^+) mice were given a single injection of various doses of either Ida, Ida-anti-Ly-2.1 or Ida-anti-TFR. […] Ida-MoAb conjugates were not tested to an LD50 dose.

CBA mice = experiment: Acute toxicity, single i.v. injection in CBA mice; type: in vivo
Description: as §8, §9

CBA mice (organs) = experiment: Histopathology after single i.v. dose; type: in vivo; conditions: 1.0 mg/kg i.v.
Description: as §8

Q: Which IC50 ([1]; Table 1, E3, 24 hour assay, read-out: Mean I.D.50 (50% inhibition in [^3 H]-thymidine incorporation of controls)) does the source give for `CC(=O)[C@]1(O)Cc2c(O)c3c(c(O)c2[C@@H](O[C@H]2C[C@H](N)[C@H](O)[C@H](C)O2)C1)C(=O)c1ccccc1C3=O` [Ida, 4-demethoxy-daunorubicin] here?
A: 1.2e-07 M

Q: And the IC50 ([1]; Table 3, E3, 24 hr, read-out: Mean I.D.50 values (Ida (M)))?
A: 7.8e-08 M

Q: And the IC50 (human cell line CEM [2]; Table 1, 24 hour assay, read-out: Mean I.D.50 (50% inhibition in [^3 H]-thymidine incorporation of controls))?
A: 2.2e-07 M

Q: And the IC50 (human cell line CEM [2]; Table 3, 24 hr, read-out: Mean I.D.50 values (Ida (M)))?
A: 9e-08 M

Q: And the IC50 (COLO 205 [3]; Table 3, Colo 205, 24 hr, read-out: Mean I.D.50 values (Ida (M)))?
A: 8e-08 M

Q: What about the IC50 (COLO 205 [3]; target cell line COLO 205, Example 1, read-out: I.D.50 (the source's name)) of the same molecule?
A: 6e-08 M

Q: And the IC50 ((L3T4^+) lymphoma EL4 [4])?
A: 6.6e-08 M

Q: And the “cytotoxicity of free Ida compared with conjugates” value (E3 and CEM cell lines)?
A: more cytotoxic to both E3 and CEM than Ida-anti-Ly-2.1 and Ida-anti-TFR respectively

Q: And the “activity of free Ida relative to Ida-MoAb conjugates” value (tumour cell lines tested)?
A: 4-10 times

Q: And the IC50 ([5]; E3, 30 min, compared with COLO 205, Example 1, read-out: dose response to free drug (I.D.50))?
A: 9.8e-07 M

Q: And the IC50 ([5]; Mus musculus, E3, incubated 30 minutes, Example 1, read-out: I.D.50 (the source's name))?
A: 5.2e-07 M

Q: What about the IC50 ([5]; Mus musculus, Table 3, E3, 30 min, read-out: Mean I.D.50 values (Ida (M))) of the same molecule?
A: 1.8e-07 M

Q: What about the IC50 (COLO 205 [6]; COLO 205, 30 min, Example 1, read-out: dose response to free drug (I.D.50)) of the same molecule?
A: 9.2e-07 M

Q: And the IC50 (COLO 205 [6]; Table 3, Colo 205, 30 min, read-out: Mean I.D.50 values (Ida (M)))?
A: 1.2e-07 M

Q: What about the IC50 ((L3T4^+) lymphoma EL4 [7]) of the same molecule?
A: 1.6e-07 M

Q: And the IC50 (human cell line CEM [8])?
A: 2.2e-07 M

Q: And the tumour reduction (E3 thymoma)?
A: up to 50%

Q: And the mice died (E3 thymoma; of 10 mice)?
A: 3

Q: What about the “anti-tumour activity / effect on tumour growth” value (solid E3 tumour) of the same molecule?
A: not affecting tumour growth

Q: What about the mice survived (COLO 205 xenografts) of the same molecule?
A: 2 out of 10

Q: And the LD50 [9]?
A: 3 mg/kg

Q: What about the L.D.10 (CBA mice; Table 2, Ida (mg/kg)) of the same molecule?
A: 0.75 mg/kg

Q: What about the LD10 (CBA mice; mg/kg of Ida, single i.v.) of the same molecule?
A: 0.75 mg/kg

Q: And the “initial weight loss (of original weight)” value (CBA mice; single i.v. injection, all mice)?
A: up to 25%

Q: And the spleen histopathology (CBA mice (organs); 15 days)?
A: atrophy of the white pulp in the spleen

Q: What about the cardiac histopathology (CBA mice (organs); data not shown) of the same molecule?
A: some hypertrophy of cardiac muscle fibres

— patent publication US5798097A, “Immunogobulin conjugates” (Pharmacia & Upjohn S.p.A., priority 1987, dated 1998)
